Drawing on patent US9518015B2, “EP1 receptor ligands” (LABORATORIOS DEL DR. ESTEVE, S.A., priority 2011, dated 2016), this text covers inhibition for 33 molecules.

Test [1] concerns the target T1, human EP1 receptor (Homo sapiens, UniProt P34995).
T1 sequence (P34995 1-402): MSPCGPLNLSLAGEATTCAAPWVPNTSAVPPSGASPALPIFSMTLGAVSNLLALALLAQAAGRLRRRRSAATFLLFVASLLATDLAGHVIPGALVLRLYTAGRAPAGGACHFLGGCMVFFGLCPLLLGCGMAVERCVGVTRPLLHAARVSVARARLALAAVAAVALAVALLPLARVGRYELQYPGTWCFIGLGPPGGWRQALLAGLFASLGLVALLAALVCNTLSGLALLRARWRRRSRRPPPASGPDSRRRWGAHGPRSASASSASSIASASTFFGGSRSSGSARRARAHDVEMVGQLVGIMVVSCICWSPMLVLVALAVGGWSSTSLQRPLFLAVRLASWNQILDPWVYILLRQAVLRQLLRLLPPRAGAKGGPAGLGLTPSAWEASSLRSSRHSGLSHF
Kind of test: Test 2: Measurement of IP1 responses by HTRF, suspended HEK-293 cells stably expressing human EP1 receptors, PGE2 30 nM. It counts as cell-based. On the set-up: expressed in transfected cells. To be noted: HEK293, at 10 μM, read-out: Results of Test 2 (Functional assay), % inh. Summed up:
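Suspended cells preincubated with compound for 15 min at 37 °C, then stimulated with 30 nM PGE2 for 90 min at 37 °C. IP1 quantified by competitive HTRF (665/620 nm) after lysis. Percent inhibition scaled between PGE2 alone (0%) and PGE2 plus 1 μM reference antagonist (100%).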
On the technique in general: In TR-FRET formats the signal depends on donor and acceptor labels being close together.

For test [2], the target named is T1, human EP1 receptor. Kind of test: Test 1: Human EP1 receptor radioligand binding assay ([3H]-PGE2, transfected HEK-293 cell membranes). On the set-up: expressed in transfected cells; host or cells: HEK-293 cell membranes. As to conditions: read-out: Results of Test 1 (Binding assay), % inh. The procedure:
Test 1: Human EP1 Receptor Radioligand Binding Assay
To investigate binding properties of EP1 receptor ligands to human EP1 receptor, transfected HEK-293 cell membranes and [3H]-PGE2 (Perkin Elmer) were used. In 96-well plates the assay was carried out with a total reaction volume of 250 μl, containing 25 μl of membrane suspension (30 μg protein/well), 25 μl of [3H]-PGE2 (10 nM) in either absence or presence of 25 μl of either buffer or PGE2 (10 μM) for total and non-specific binding, respectively. Binding buffer contained 10 mM MES, 1 mM MgCl2 and 1 mM EDTA at pH 6.0. Plates were incubated at 25° C. for 60 minutes. After the incubation period, 200 μl of incubate were transferred to MultiScreen HTS, FB plates (Millipore), filtered and plates were washed 6 times with ice-cold 10 mM MES, 1 mM MgCl2 and 1 mM EDTA at pH 6.0. Filters were dried and counted in a MicroBeta scintillation counter (Perkin-Elmer) using EcoScint liquid scintillation cocktail.
Percentage inhibition was calculated relating compounds activity to the 0% inhibition of the wells incubated with 10 nM [3H]-PGE2 alone (total binding) and 100% inhibition of the wells incubated with 10 nM [3H]-PGE2 plus 10 μM PGE2 (non-specific binding).

In test [3] the target is T1, human EP1 receptor. Kind of test: Test 3: Measurement of IP1 responses by HTRF, HEK-293 cells stably expressing human EP1 receptors incubated o/n, PGE2 10 nM. As to conditions: HEK293, read-out: Results of Test 3 (Functional assay), % inh. It counts as cell-based. On the set-up: expressed in transfected cells. On the procedure: Test 3: Measurement of IP1 Responses by Homogeneous Time Resolved Fluorescence
IP1 measurements on HEK-293 cells that stably expressed human EP1 receptors were performed by using a system based on Homogeneous Time Resolved Fluorescense (HTRF) (Gabriel et al., 2003). This technology allows the direct measurement of IP1 in living cells. The principle of this assay is based on competition between IP1 produced by cells and IP1-d2 conjugate for the binding with monoclonal anti-IP1-cryptate conjugate. The HTRF IP1 kit from CisBio was used according to the manufacturer's directions. The experimental procedure was performed as stated below.
40,000 cells per well were added to 96-well culture plates in 40 μl of Optimem and incubated o/n at 37° C. Optimem was replaced by 40 μl of stimulation buffer (supplied by the kit) and compounds were then added in 20 μl of stimulation buffer and incubated at 37° C. for 15 minutes followed by 10 μl of PGE2 to a final concentration of 10 nM. After 90 minutes at 37° C., the reaction was stopped lysing the cells with a mixture of 15 μl of cryptate and 15 μl of IP1-d2 prepared in the lysis buffer supplied by the manufacturer. Plates were incubated for an additional hour at room temperature and read at 665 nm/620 nm using an UltraEvolution Plate reader (Tecan).
Antagonist percentage inhibition was calculated relating compounds activity to the 0% inhibition of the wells incubated with 10 nM PGE2 alone and 100% inhibition of the wells incubated with 10 nM PGE2 plus 10 μM of the reference antagonist.

Bounds are passed on as bounds.

For `O=C(O)c1cccc2c1ccn2Cc1cc(Cl)ccc1OCc1ccc(C(F)(F)F)cc1F` [Example 47, 1-(5-chloro-2-((2-fluoro-4-(trifluoromethyl)benzyl)oxy)benzyl)-1H-indole-4-carboxylic acid], the inhibition at 10 µM in test [1] and in test [2] was more than 75% in each case.

Take `O=C(O)c1cccc2c1ccn2Cc1cc(Cl)ccc1OCc1ccc(Cl)cc1F` [Example 48, 1-(5-chloro-2-((4-chloro-2-fluorobenzyl)oxy)benzyl)-1H-indole-4-carboxylic acid]: the inhibition at 10 µM in test [1] and in test [2] was more than 75% each time.

As to `O=C(O)c1cccc2c1ccn2Cc1cc(C(F)(F)F)ccc1OCc1cccc(F)c1` [Example 49, 1-(2-((3-fluorobenzyl)oxy)-5-(trifluoromethyl)benzyl)-1H-indole-4-carboxylic acid], the inhibition at 10 µM in test [1] was more than 75%; in test [2], 45 to 75%.

Take `O=C(O)c1cccc2c1ccn2Cc1cc(C(F)(F)F)ccc1OCc1ccc(F)cc1F` [Example 51, 1-(2-((2,4-difluorobenzyl)oxy)-5-(trifluoromethyl)benzyl)-1H-indole-4-carboxylic acid]: the inhibition at 10 µM is more than 75% in test [1] and 45 to 75% in test [2].

For `O=C(O)c1cccc2c1ccn2Cc1ccccc1OCc1ccc(F)cc1F` [Example 54, 1-(2-((2,4-difluorobenzyl)oxy)benzyl)-1H-indole-4-carboxylic acid], the figures for the inhibition at 10 µM in test [1] and in test [2] were more than 75% and 45 to 75%, respectively.

In the case of `O=C(O)c1cccc2c1ccn2Cc1cc(Br)ccc1OCc1ccc(Br)cc1F` [Example 55, 1-(5-bromo-2-((4-bromo-2-fluorobenzyl)oxy)benzyl)-1H-indole-4-carboxylic acid], the inhibition at 10 µM in test [1] and in test [2] was more than 75% in each case.

As to `O=C(O)c1ccc2c(ccn2Cc2cc(F)ccc2OCc2ccc(F)c(Br)c2)c1` [Example 68, 1-(2-((3-bromo-4-fluorobenzyl)oxy)-5-fluorobenzyl)-1H-indole-5-carboxylic acid], the inhibition at 10 µM in test [1] was more than 75%; in test [2] it was 45 to 75%.

As to `O=C(O)c1ccc2c(ccn2Cc2cc(Br)ccc2OCc2ccc(F)cc2C(F)(F)F)c1` [Example 69], the inhibition at 10 µM was more than 75% in test [1] and 45 to 75% in test [2].

As for `O=C(O)c1ccc2c(ccn2Cc2cc(C(F)(F)F)ccc2OCc2ccc(Br)cc2F)c1` [Example 75, 1-(2-((4-bromo-2-fluorobenzyl)oxy)-5-(trifluoromethyl)benzyl)-1H-indole-5-carboxylic acid], the inhibition at 10 µM in test [1] was more than 75%; in test [2], 45 to 75%.

For the molecule `O=C(O)c1ncnc2c1ccn2Cc1cc(Cl)ccc1OCc1ccc(F)cc1F` [Example 99], the inhibition at 10 µM in test [1] and in test [2] was more than 75% each time.

In the case of `O=C(O)c1cccc2c1OCC(=O)N2Cc1cc(Br)ccc1OCc1ccc(Cl)cc1F` [Example 115], the inhibition at 10 µM in test [3] and in test [2] was more than 75% in each case.

For the molecule `O=C(O)c1cccc2c1OCCN2Cc1cc(Cl)ccc1OCc1ccc(Cl)cc1F` [Example 117], the inhibition at 10 µM in test [3] and in test [2] was more than 75% each time.

Turning to `O=C(O)c1cccc2c1OCCN2Cc1ccccc1OCc1ccc(Cl)cc1F` [Example 119], the inhibition at 10 µM in test [3] and in test [2] was more than 75% throughout.

As for `O=C(O)c1cccc2c1OCCN2Cc1cc(F)ccc1OCc1ccc(F)cc1Cl` [Example 121], the inhibition at 10 µM in test [3] and in test [2] was more than 75% in each case.

As to `O=C(O)c1cccc2c1OCCN2Cc1ccccc1OCc1ccc(F)cc1F` [Example 122], the inhibition at 10 µM in test [3] and in test [2] was more than 75% throughout.

`O=C(O)c1cccc2c1cnn2Cc1cc(Cl)ccc1OCc1ccc(Cl)cc1F` [Example 124]: the inhibition at 10 µM in test [3] and in test [2] was more than 75% in each case.

Consider `CC(C)(F)COc1ccc(Cl)cc1Cn1ncc2c(C(=O)O)cccc21` [Example 125], for which the inhibition at 10 µM in test [3] and in test [2] was more than 75% each time.

In the case of `O=C(O)c1cccc2c1cnn2Cc1cc(Br)ccc1OCc1ccc(Cl)cc1F` [Example 136], the inhibition at 10 µM in test [3] and in test [2] was more than 75% in each case.

For `O=C(O)c1cccc2c1cnn2Cc1cc(Cl)ccc1OC1CCC1` [Example 137], the inhibition at 10 µM in test [3] and in test [2] was more than 75% each time.

`CC(C)(C)COc1ccc(Cl)cc1Cn1ncc2c(C(=O)O)cccc21` [Example 138]: the inhibition at 10 µM in test [3] and in test [2] was more than 75% throughout.

For the molecule `O=C(O)c1cccc2c1c(CO)cn2Cc1cc(Cl)ccc1OCc1ccc(Cl)cc1F` [Example 141, sodium 1-(5-chloro-2-((4-chloro-2-fluorobenzyl)oxy)benzyl)-3-(hydroxymethyl)-1H-indole-4-carboxylate], the inhibition at 10 µM in test [3] and in test [2] was more than 75% throughout.

As for `O=C(O)c1cccc2c1c(CO)cn2Cc1cc(Cl)ccc1OCc1ccc(F)cc1F` [Example 142], the inhibition at 10 µM in test [3] and in test [2] was more than 75% in each case.

As to `O=C(O)c1cccc2c1c(CO)cn2Cc1ccccc1OCc1ccc(Cl)cc1F` [Example 144], the inhibition at 10 µM in test [3] and in test [2] was more than 75% each time.

For the molecule `O=C(O)c1cccc2c1c(CO)cn2Cc1cc(F)ccc1OCc1ccc(F)cc1F` [Example 145], the inhibition at 10 µM in test [3] and in test [2] was more than 75% in each case.

`O=C(O)c1cccc2c1c(CO)cn2Cc1cc(F)ccc1OCc1ccc(Cl)cc1F` [Example 146]: the inhibition at 10 µM in test [3] and in test [2] was more than 75% in each case.

For the molecule `CC(C)(F)COc1ccc(Cl)cc1Cn1cc(CO)c2c(C(=O)O)cccc21` [Example 147], the inhibition at 10 µM in test [3] and in test [2] was more than 75% each time.

As to `O=C(O)c1cccc2c1c(CO)cn2Cc1cc(F)ccc1OC1CCC1` [Example 148], the inhibition at 10 µM in test [3] and in test [2] was more than 75% each time.

Take `O=C(O)c1cccc2c1c(CO)cn2Cc1cc(F)ccc1OCc1ccc(F)cc1` [Example 149]: the inhibition at 10 µM in test [3] and in test [2] was more than 75% each time.

On to `CC(CF)COc1ccc(Cl)cc1Cn1cc(CO)c2c(C(=O)O)cccc21` (stereo not drawn) [Example 151], for which the inhibition at 10 µM in test [3] and in test [2] was more than 75% in each case.

Consider `O=C(O)c1ccnc2c1c(CO)cn2Cc1cc(Cl)ccc1OCc1ccc(F)cc1F` [Example 152], for which the inhibition at 10 µM in test [3] and in test [2] was more than 75% throughout.

`CC(C)COc1ccc(Cl)cc1Cn1cc(CCO)c2c(C(=O)O)cccc21` [Example 157]: the inhibition at 10 µM in test [3] and in test [2] was more than 75% in each case.

On to `CC(C)(F)COc1ccc(Cl)cc1CN1CCc2c(C(=O)O)cccc21` [Example 166], for which the inhibition at 10 µM in test [3] and in test [2] was more than 75% each time.

`CC(C)COc1ccc(Cl)cc1CN1CCc2c(C(=O)O)cccc21` [Example 169]: the inhibition at 10 µM in test [3] and in test [2] was more than 75% throughout.
